What was measured:
[1] = target: T1, recombinant METTL3/METTL14 complex (Homo sapiens, UniProt Q86U44); experiment: METTL3/14 Scintillation Proximity Assay (SPA), RNA methyltransferase activity; assay type: biochemical; details: 5.31 nM METTL3/14 complex, 250 nM RNA substrate, 1 μM 3H-SAM, 90 min; for compounds marked * best of the two separated forms
T1 construct: purchased Active Motif 311970; host or cells: Sf9 cells

Caov-3 cells = experiment: Caov-3 cellular viability assay (ATP-Lite, 72 h); assay type: cell-based; details: Homo sapiens, ATP-Lite luminescence, % viability relative to DMSO
Procedure, shortened: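 10000 cells/well treated 72 h at 37 °C, 5% CO2, in RPMI-1640 with 10% FBS and 0.1% DMSO final. Viability by ATP-Lite One Step luminescence. Expressed as % of DMSO control, with IC50 from each compound's concentration-response curve.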

Kasumi-1 cells = experiment: Kasumi-1 cellular viability assay (ATP-Lite, 72 h); assay type: cell-based; details: Homo sapiens, ATP-Lite luminescence, % viability relative to DMSO
Procedure, shortened: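 Kasumi-1 AML cells, 15000/well in RPMI-1640 with 10% FBS, were exposed to compound titrations (0.1% final DMSO) for 72 h at 37 °C, 5% CO2. ATP-Lite One Step luminescence gave % viability versus DMSO control, and IC50 came from the concentration-response.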

T1 sequence (Q86U44 whole entry): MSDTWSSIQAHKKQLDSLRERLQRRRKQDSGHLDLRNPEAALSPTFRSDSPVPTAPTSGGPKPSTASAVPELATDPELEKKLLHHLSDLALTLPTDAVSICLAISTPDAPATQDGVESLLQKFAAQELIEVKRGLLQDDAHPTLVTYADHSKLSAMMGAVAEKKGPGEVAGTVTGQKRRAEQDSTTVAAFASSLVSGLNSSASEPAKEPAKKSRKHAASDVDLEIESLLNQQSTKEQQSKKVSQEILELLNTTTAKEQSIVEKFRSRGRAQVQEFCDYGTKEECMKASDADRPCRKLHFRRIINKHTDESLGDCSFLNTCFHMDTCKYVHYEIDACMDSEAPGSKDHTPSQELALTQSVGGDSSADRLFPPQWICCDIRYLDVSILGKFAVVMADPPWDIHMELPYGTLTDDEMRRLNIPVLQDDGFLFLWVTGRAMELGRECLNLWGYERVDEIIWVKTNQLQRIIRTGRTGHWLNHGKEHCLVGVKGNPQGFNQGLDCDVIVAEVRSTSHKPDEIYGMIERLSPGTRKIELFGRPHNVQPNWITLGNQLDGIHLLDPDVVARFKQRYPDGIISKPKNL
T1 sequence (Q9HCE5 whole entry partner): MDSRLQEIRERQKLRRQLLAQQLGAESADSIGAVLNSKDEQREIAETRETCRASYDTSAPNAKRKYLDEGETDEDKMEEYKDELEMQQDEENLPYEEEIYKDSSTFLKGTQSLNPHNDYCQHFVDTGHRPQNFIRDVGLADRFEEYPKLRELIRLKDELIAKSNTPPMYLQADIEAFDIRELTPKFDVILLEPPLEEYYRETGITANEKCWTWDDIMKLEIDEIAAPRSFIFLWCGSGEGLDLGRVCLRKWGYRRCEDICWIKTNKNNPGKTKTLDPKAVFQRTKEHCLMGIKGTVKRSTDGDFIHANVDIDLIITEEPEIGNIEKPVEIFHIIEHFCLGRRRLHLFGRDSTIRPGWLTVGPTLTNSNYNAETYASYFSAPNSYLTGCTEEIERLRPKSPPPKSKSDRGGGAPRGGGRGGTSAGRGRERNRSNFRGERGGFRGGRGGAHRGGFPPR

| IC50 [1] [nM] | Structure (SMILES) | IC50 (Caov-3 cells) [nM] | IC50 (Kasumi-1 cells) [nM] |
| --- | --- | --- | --- |
| ≤ 50 | COc1cncc(-c2cn(C3(c4ccc(N5CCC[C@@H](NCC6CC6)C5)cn4)COC3)nn2)c1 [Compound 249, (R)-N-(cyclopropylmethyl)-1-(6-(3-(4-(5-methoxypyridin-3-yl)-1H-1,2,3-triazol-1-yl)oxetan-3-yl)pyridin-3-yl)piperidin-3-amine] | ≤ 500 | ≤ 500 |
| ≤ 50 | CC(c1ccc(N2CCC[C@@H](NCC3CCC3)C2)nn1)n1cc(-c2cncc(N3CC4CC4C3)n2)nn1 (single isomer, unassigned) [Compound 284] | ≤ 500 | ≤ 500 |
| ≤ 50 | CC(n1cc(-c2cc(N(C)C)cnn2)nn1)n1ccc(N2CCC[C@@H](NCC3CCC3)C2)cc1=O (single isomer, unassigned) [Compound 198] | 500 to 5000 | 500 to 5000 |
| ≤ 50 | CC(c1ccc(N2CCC[C@@H](NCC3CCC3)C2)cn1)n1cc(-c2cncc(N3CC4CC4C3)n2)nn1 (single isomer, unassigned) [Compound 286] | ≤ 500 | ≤ 500 |
| ≤ 50 | CC(c1ccc(N2CCC[C@@H](NCC34CC(F)(C3)C4)C2)cn1)n1cc(-c2cncc(N3CCCC3)n2)nn1 (stereo partly drawn) [Compound 304, (3R)—N-((3-fluorobicyclo[1.1.1]pentan-1-yl)methyl)-1-(6-(1-(4-(6-(pyrrolidin-1-yl)pyrazin-2-yl)-1H-1,2,3-triazol-1-yl)ethyl)pyridin-3-yl)piperidin-3-amine] | ≤ 500 | ≤ 500 |
| ≤ 50 | CC(n1cc(-c2cncc(N3CCC4(CC4)C3)n2)nn1)n1ccc(N2CCC[C@@H](NCC3CC3)C2)cc1=O (stereo partly drawn) [Compound 235, 1-(1-(4-(6-(5-azaspiro[2.4]heptan-5-yl)pyrazin-2-yl)-1H-1,2,3-triazol-1-yl)ethyl)-4-((R)-3-((cyclopropylmethyl)amino)piperidin-1-yl)pyridin-2(1H)-one] | ≤ 500 | ≤ 500 |
| ≤ 50 | c1cc(C2(n3cc(-c4cncc(N5CC6CC6C5)n4)nn3)COC2)ncc1N1CCC[C@@H](NCC2CCC2)C1 (stereo partly drawn) [Compound 291, (3R)-1-(6-(3-(4-(6-(3-azabicyclo[3.1.0]hexan-3-yl)pyrazin-2-yl)-1H-1,2,3-triazol-1-yl)oxetan-3-yl)pyridin-3-yl)-N-(cyclobutylmethyl)piperidin-3-amine] | ≤ 500 | ≤ 500 |
| 50 to 500 | c1ncc(C2CC2)cc1-c1nnc(C2(c3ccc(N4CCC[C@@H](NCC5CC5)C4)cn3)COC2)o1 [Compound 344, (R)-N-(cyclopropylmethyl)-1-(6-(3-(5-(5-cyclopropylpyridin-3-yl)-1,3,4-oxadiazol-2-yl)oxetan-3-yl)pyridin-3-yl)piperidin-3-amine] | > 5000 | 500 to 5000 |
| ≤ 50 | c1ncc(C2CC2)cc1-c1nnc(Cc2ccc(N3CCC[C@@H](NCC4CC4)C3)cn2)s1 [Compound 362, (R)-N-(cyclopropylmethyl)-1-(6-((5-(5-cyclopropylpyridin-3-yl)-1,3,4-thiadiazol-2-yl)methyl)pyridin-3-yl)piperidin-3-amine] | ≤ 500 | ≤ 500 |
| ≤ 50 | CC(C)(c1ccc(N2CCC[C@@H](NCC3CC3)C2)cn1)c1nnc(-c2cncc(C3CC3)c2)s1 [Compound 363, (R)-N-(cyclopropylmethyl)-1-(6-(2-(5-(5-cyclopropylpyridin-3-yl)-1,3,4-thiadiazol-2-yl)propan-2-yl)pyridin-3-yl)piperidin-3-amine] | 500 to 5000 | 500 to 5000 |
| ≤ 50 | CC(n1cc(-c2cncc(N3CC[C@H](F)C3)n2)nn1)n1ccc(N2CCC[C@@H](NCC3CC3)C2)cc1=O (single isomer, unassigned) [Compound 241] | ≤ 500 | ≤ 500 |
| ≤ 50 | CC(c1ccc(N2CCC[C@@H](NCC3CCC3)C2)cn1)n1cc(-c2cncc(C3CC3)n2)nn1 (stereo partly drawn) [Compound 292, (3R)—N-(cyclobutylmethyl)-1-(6-(1-(4-(6-cyclopropylpyrazin-2-yl)-1H-1,2,3-triazol-1-yl)ethyl)pyridin-3-yl)piperidin-3-amine] | 500 to 5000 | 500 to 5000 |
| ≤ 50 | c1ncc(-c2cn(C3(c4ccc(N5CCC[C@@H](NCC6CC6)C5)cn4)COC3)nn2)cc1CC1CC1 [Compound 346, (R)-N-(cyclopropylmethyl)-1-(6-(3-(4-(5-(cyclopropylmethyl)pyridin-3-yl)-1H-1,2,3-triazol-1-yl)oxetan-3-yl)pyridin-3-yl)piperdin-3-amine] | ≤ 500 | ≤ 500 |
| ≤ 50 | CC(n1cc(-c2cncc(N3CC4(COC4)C3)n2)nn1)n1ccc(N2CCC[C@@H](NCC3CC3)C2)cc1=O (single isomer, unassigned) [Compound 237] | 500 to 5000 | 500 to 5000 |

Continued, molecule first:

| Structure (SMILES) | IC50 [1] [nM] | IC50 (Caov-3 cells) [nM] | IC50 (Kasumi-1 cells) [nM] |
| --- | --- | --- | --- |
| CC(n1cc(-c2cc(=O)n3ccccc3n2)nn1)n1ccc(N2CCC[C@@H](NCC3CCC3)C2)cc1=O (single isomer, unassigned) [Compound 088] | ≤ 50 | 500 to 5000 | 500 to 5000 |
| CN(C)c1cncc(-c2cn(C3(c4ccc(N5CCC[C@@H](NCC6CC6)C5)cn4)COC3)nn2)n1 [Compound 192, (R)-6-(1-(3-(5-(3-((cyclopropylmethyl)amino)piperidin-1-yl)pyridin-2-yl)oxetan-3-yl)-1H-1,2,3-triazol-4-yl)-N,N-dimethylpyrazin-2-amine] | ≤ 50 | ≤ 500 | ≤ 500 |
| COc1cc(-c2cn(Cc3ccc(N4CCC[C@@H](NCCC(C)(C)C)C4)nn3)nn2)c2cn[nH]c2c1 [Compound 024, (R)-N-(3,3-dimethylbutyl)-1-(6-((4-(6-methoxy-1H-indazol-4-yl)-1H-1,2,3-triazol-1-yl)methyl)pyridazin-3-yl)piperidin-3-amine] | ≤ 50 | > 5000 | > 5000 |
| CC(n1cc(-c2cncc(N(C)CC(F)(F)F)c2)nn1)n1ccc(N2CCC[C@@H](NCC3CCC3)C2)cc1=O (single isomer, unassigned) [Compound 154] | ≤ 50 | ≤ 500 | ≤ 500 |
| COc1cncc(-c2cn(Cc3ccc(N4CCC[C@@H](NCC5CCC5)C4)cc3)nn2)c1 [Compound 068, (R)-N-(cyclobutylmethyl)-1-(4-((4-(5-methoxypyridin-3-yl)-1H-1,2,3-triazol-1-yl)methyl)phenyl) piperidin-3-amine] | ≤ 50 | 500 to 5000 | 500 to 5000 |
| CC(NC(=O)c1cc(=O)n2ccccc2n1)c1ccc(N2CCC[C@@H](NCC3CCC3)C2)cn1 (single isomer, unassigned) [Compound 058] | ≤ 50 | 500 to 5000 | 500 to 5000 |
| COc1cc(-c2cn(Cc3ccc(N4CCCC(N5CCC6(CCC6)C5)C4)nn3)nn2)c2cn[nH]c2c1 (stereo not drawn) [Compound 008, 4-(1-((6-(3-(6-azaspiro[3.4]octan-6-yl)piperidin-1-yl)pyridazin-3-yl)methyl)-1H-1,2,3-triazol-4-yl)-6-methoxy-1H-indazole] | ≤ 50 | 500 to 5000 | > 5000 |
| COc1cncc(-n2cc(Cn3ccc(N4CCC[C@@H](NCC5CCC5)C4)cc3=O)nn2)c1 [Compound 075, (R)-4-(3-((cyclobutylmethyl)amino)piperidin-1-yl)-1-((1-(5-methoxypyridin-3-yl)-1H-1,2,3-triazol-4-yl)methyl)pyridin-2(1H)-one] | ≤ 50 | 500 to 5000 | > 5000 |
| CC(n1nnc(-c2cncc(N(C)C)c2)n1)n1ccc(N2CCC[C@@H](NCC3CCC3)C2)cc1=O (single isomer, unassigned) [Compound 179] | ≤ 50 | ≤ 500 | ≤ 500 |
| COc1cncc(-c2ncc(Cn3ccc(N4CCC[C@@H](NCC5CCC5)C4)cc3=O)s2)c1 [Compound 097, (R)-4-(3-((cyclobutylmethyl)amino)piperidin-1-yl)-1-((2-(5-methoxypyridin-3-yl)thiazol-5-yl)methyl)pyridin-2(1H)-one] | ≤ 50 | ≤ 500 | ≤ 500 |
| COc1cncc(-c2cn(C(C)c3ccc(N4CCC[C@@H](NCC5CCC5)C4)nc3)nn2)c1 (single isomer, unassigned) [Compound 071] | ≤ 50 | 500 to 5000 | 500 to 5000 |
| CN(C)c1cncc(NC(=O)C2(c3ccc(N4CCC[C@@H](NCC5CC5)C4)cn3)COC2)c1 [Compound 175, (R)-3-(5-(3-((cyclopropylmethyl)amino)piperidin-1-yl)pyridin-2-yl)-N-(5-(dimethylamino)pyridin-3-yl)oxetane-3-carboxamide] | ≤ 50 | 500 to 5000 | 500 to 5000 |
| COc1cc(-c2cn(Cc3ccc(N4CCC[C@@H](NCC5CCC5)C4)cn3)nn2)c2cn[nH]c2c1 [Compound 042, (R)-N-(cyclobutylmethyl)-1-(6-((4-(6-methoxy-1H-indazol-4-yl)-1H-1,2,3-triazol-1-yl)methyl)pyridin-3-yl)piperidin-3-amine] | ≤ 50 | ≤ 500 | ≤ 500 |
| COc1cncc(-c2cn(Cc3ccc(N4CCC[C@@H](NCC5CCC5)C4)nn3)nn2)c1 [Compound 012, (R)-N-(cyclobutylmethyl)-1-(6-((4-(5-methoxypyridin-3-yl)-1H-1,2,3-triazol-1-yl)methyl)pyridazin-3-yl)piperidin-3-amine] | ≤ 50 | 500 to 5000 | 500 to 5000 |

Source: patent US20250002475A1 (EPICS THERAPEUTICS, priority 2023, published 2025)
